{"source": "paper PMC10138577", "about": "“Prenylated Flavonoids with Selective Toxicity against Human Cancers” (International Journal of Molecular Sciences, 2023)", "test_system": "breast cancer cell lines MCF-7, SK-BR-3, T47D", "assay": "Selectivity towards all breast cancer cell lines tested (SRB)", "format": "cell-based, human", "details": "IC50 BALB/3T3/IC50 of MCF-7, SK-BR-3, T47D", "description": "The selective effect of a drug can be expressed by the selectivity index (SI), which is determined by comparing the cytotoxic activity of each compound against each cancer cell line with the activity against a normal cell line. The SI was calculated as the IC50 ratio for a normal cell line (SIA—HLMEC; SIB—BALB/3T3) to the IC50 value for the corresponding tumor cell line using the following equation:(1) SI=IC50 for normal cell line/IC50 for cancerous cell line […]\nThe details of this technique were described by Skehan et al.. […] The unbound dye was removed by washing the plates five times with 1% acetic acid, whereas the stain bound to the cells was extracted with 150 µL of 10 mM unbuffered Tris base for determination of the optical density at a 540 nm wavelength in a computer-interfaced, 96-well microtiter plate reader–Multiskan FC photometer (Thermo Scientific, Waltham, MA, USA). The background optical density was measured in the wells filled with culture medium, without the cells. […]"}
{"smiles": "COc1cc(O)c(CC=C(C)C)c2c1C(=O)/C(=C/c1ccc(O)cc1)O2", "note": "[compound 2, (Z)-6,4′-dihydroxy-4-methoxy-7-prenylaurone]", "values": [{"measurement": "selectivity index SIB, range over breast cancer cell lines", "result": "3.93–5.50"}]}
